Target: MAPK14 (human) (UniProt Q16539)
Assay: Inhibition of LPS Stimulated TNF Production by U937 Cells
Conditions: for inhibition: concentration not given here

Sequence of MAPK14 (human) (Q16539 whole entry, looked up): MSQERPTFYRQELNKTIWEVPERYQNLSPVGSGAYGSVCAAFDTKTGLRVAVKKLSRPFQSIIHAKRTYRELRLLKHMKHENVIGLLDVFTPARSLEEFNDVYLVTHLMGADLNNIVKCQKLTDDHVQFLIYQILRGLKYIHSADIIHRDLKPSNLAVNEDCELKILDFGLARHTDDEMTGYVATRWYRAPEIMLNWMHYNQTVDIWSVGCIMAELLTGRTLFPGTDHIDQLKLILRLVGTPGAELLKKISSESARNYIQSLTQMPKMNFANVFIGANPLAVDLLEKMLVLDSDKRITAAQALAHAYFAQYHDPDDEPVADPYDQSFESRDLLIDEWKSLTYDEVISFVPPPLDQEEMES

SMILES | IC50 | inhibition
CNC(=O)CC[C@H](NC(=O)Nc1ccccc1F)c1[nH]nc(-c2ccc(F)cc2)c1-c1ccncc1 | > 1000 nM | 
O=S(=O)(NCc1[nH]nc(-c2ccc(F)cc2)c1-c1ccncc1)c1ccccc1C(F)(F)F |  | 46%
CCCCOc1ccc(S(=O)(=O)NCc2[nH]nc(-c3ccc(F)cc3)c2-c2ccncc2)cc1 |  | 31%
CCS(=O)(=O)N[C@H](Cc1ccccc1)c1[nH]nc(-c2ccc(F)cc2)c1-c1ccncc1 |  | 5%
O=C(NCc1[nH]nc(-c2ccc(F)cc2)c1-c1ccncc1)NC(=O)c1ccccc1 |  | 28%
CC(C)C(=O)NCc1[nH]nc(-c2ccc(F)cc2)c1-c1ccncc1 | 650 nM | 
CC(C)=CC(=O)N[C@H](Cc1ccccc1)c1[nH]nc(-c2ccc(F)cc2)c1-c1ccncc1 | > 1000 nM | 
O=[N+]([O-])c1cc(S(=O)(=O)NCc2[nH]nc(-c3ccc(F)cc3)c2-c2ccncc2)ccc1Cl |  | 15%
O=C(N[C@H](Cc1ccccc1)c1[nH]nc(-c2ccc(F)cc2)c1-c1ccncc1)c1ccncc1 |  | 25%
CN(C)CCCNc1n[nH]c(-c2ccc(F)cc2)c1-c1ccncc1 | 270 nM | 
O=C(NCc1[nH]nc(-c2ccc(F)cc2)c1-c1ccncc1)Nc1cc(Cl)cc(Cl)c1 |  | 20%
COc1ccc(S(=O)(=O)N[C@@H](Cc2ccccc2)c2[nH]nc(-c3ccc(F)cc3)c2-c2ccncc2)cc1OC | < 1000 nM | 
O=C(Cc1cccc2ccccc12)NCc1[nH]nc(-c2ccc(F)cc2)c1-c1ccncc1 |  | 21%
COc1ccc(CC(=O)NCc2[nH]nc(-c3ccc(F)cc3)c2-c2ccncc2)cc1 | 8240 nM | 
NC(=O)N[C@@H](Cc1ccccc1)c1[nH]nc(-c2ccc(F)cc2)c1-c1ccncc1 |  | 17%
O=C(NCCc1[nH]nc(-c2ccc(F)cc2)c1-c1ccncc1)c1cc(F)cc(F)c1 |  | 29%
CCc1n[nH]c(-c2ccccc2)c1-c1ccncc1 | 243 nM | 
CC[C@H](C)CNc1cc(-c2c[nH]nc2-c2ccc(Cl)cc2)ccn1 | 33.7 nM | 
O=S(=O)(NCc1[nH]nc(-c2ccc(F)cc2)c1-c1ccncc1)c1cc(Cl)cc(Cl)c1 |  | 45%
CC(C)=CC(=O)NCc1[nH]nc(-c2ccc(F)cc2)c1-c1ccncc1 | 11000 nM | 
Fc1ccc(-c2n[nH]cc2-c2ccnc(NCCN3CCOCC3)c2)cc1 | 539 nM | 

SMILES | IC50 | inhibition
OCCn1cc(-c2ccnc(F)c2)c(-c2ccc(F)cc2)n1 | 2670 nM | 
O=C(N[C@H](Cc1ccccc1)c1[nH]nc(-c2ccc(F)cc2)c1-c1ccncc1)c1ccc(F)cc1 | > 1000 nM | 
O=C(NCc1[nH]nc(-c2ccc(F)cc2)c1-c1ccncc1)c1ccccc1I | 2970 nM | 
C[C@@H](NC(=O)c1ccccc1)c1[nH]nc(-c2ccc(F)cc2)c1-c1ccncc1 |  | 19%
O=S(=O)(c1ccc(C(F)(F)F)cc1)N1CCC(c2[nH]nc(-c3ccc(F)cc3)c2-c2ccncc2)CC1 |  | 31%
Cn1cnc(S(=O)(=O)NCc2[nH]nc(-c3ccc(F)cc3)c2-c2ccncc2)c1 |  | 24%
CN(C)CCn1cc(-c2ccncc2)c(-c2ccc(F)cc2)n1 | 254 nM | 
COC(=O)CCC(=O)NCc1[nH]nc(-c2ccc(F)cc2)c1-c1ccncc1 | 10000 nM | 
Fc1ccc(-c2nn(CCN3CCOCC3)cc2-c2ccnc(F)c2)cc1 | > 10000 nM | 
O=S(=O)(NCc1[nH]nc(-c2ccc(F)cc2)c1-c1ccncc1)c1ccc(-c2ccccn2)s1 |  | 63%
O=S(=O)(c1c(F)cccc1F)N1CCC(c2[nH]nc(-c3ccc(F)cc3)c2-c2ccncc2)CC1 |  | 8%
CCCC(CCC)C(=O)NCc1[nH]nc(-c2ccc(F)cc2)c1-c1ccncc1 |  | 29%
C[C@H](NC(=O)c1cccc(C(F)(F)F)c1F)c1[nH]nc(-c2ccc(F)cc2)c1-c1ccncc1 |  | 15%
COc1ccc(Br)cc1S(=O)(=O)N1CCC(c2[nH]nc(-c3ccc(F)cc3)c2-c2ccncc2)CC1 |  | 36%
COC(=O)c1ccccc1S(=O)(=O)NCc1[nH]nc(-c2ccc(F)cc2)c1-c1ccncc1 | 4850 nM | 
CC1(C)[C@@H]2CC[C@]1(S(=O)(=O)NCCc1[nH]nc(-c3ccc(F)cc3)c1-c1ccncc1)C(=O)C2 |  | 56%
Cc1c(Cl)cccc1S(=O)(=O)NCCc1[nH]nc(-c2ccc(F)cc2)c1-c1ccncc1 |  | 29%
COc1ccc(OC)c(S(=O)(=O)NCCc2[nH]nc(-c3ccc(F)cc3)c2-c2ccncc2)c1 |  | 29%
C[C@@H](NC(=O)N1CCCC1)c1[nH]nc(-c2ccc(F)cc2)c1-c1ccncc1 |  | 48%
O=C(NCc1[nH]nc(-c2ccc(F)cc2)c1-c1ccncc1)c1ccco1 |  | 8%
C[C@@H](NC(=O)c1cccc(C(F)(F)F)c1)c1[nH]nc(-c2ccc(F)cc2)c1-c1ccncc1 |  | 25%

SMILES | IC50 | inhibition
COc1cc(NC(=O)CCNC(=O)Cn2nc(-c3ccc(F)cc3)c(-c3ccncc3)c2C)cc2ccccc12 | 4220 nM | 
CN(C)c1ccc(CNC(=O)NCCCc2[nH]nc(-c3ccc(F)cc3)c2-c2ccncc2)cc1 |  | 15%
CC(C)c1ccc(S(=O)(=O)NCc2[nH]nc(-c3ccc(F)cc3)c2-c2ccncc2)cc1 | > 1000 nM | 
O=C(NCc1[nH]nc(-c2ccc(F)cc2)c1-c1ccncc1)Nc1ccc(OC(F)(F)F)cc1 |  | 11%
Cc1ccc(S(=O)(=O)N[C@@H](Cc2ccccc2)C(=O)NCCCc2[nH]nc(-c3ccc(F)cc3)c2-c2ccncc2)cc1 |  | 36%
C[C@H](NC(=O)N1CCCC1)c1[nH]nc(-c2ccc(F)cc2)c1-c1ccncc1 | 2170 nM | 
Cc1c(C)c(S(=O)(=O)NCc2[nH]nc(-c3ccc(F)cc3)c2-c2ccncc2)c(C)c2c1OC(C)(C)CC2 |  | 11%
O=C(NCc1[nH]nc(-c2ccc(F)cc2)c1-c1ccncc1)[C@H]1CCCN1C(=O)OCC1c2ccccc2-c2ccccc21 |  | 14%
O=C(NCc1[nH]nc(-c2ccc(F)cc2)c1-c1ccncc1)c1ccccc1Br |  | 50%
COC(=O)CNc1n[nH]c(-c2ccc(F)cc2)c1-c1ccncc1 | > 10000 nM | 
O=S(=O)(NCCc1[nH]nc(-c2ccc(F)cc2)c1-c1ccncc1)c1cccc2cnccc12 |  | 91%
C[C@@H](NC(=O)[C@@H]1CCCN1)c1[nH]nc(-c2ccc(F)cc2)c1-c1ccncc1 |  | 27%
C[C@@H](NC(=O)[C@H]1CCCN1)c1[nH]nc(-c2ccc(F)cc2)c1-c1ccncc1 |  | 39%
CN(C)CCNc1cc(-c2c[nH]nc2-c2ccc(F)cc2)ccn1 | 259 nM | 
CSCCC(=O)NCc1[nH]nc(-c2ccc(F)cc2)c1-c1ccncc1 |  | 13%
CCS(=O)(=O)NCc1[nH]nc(-c2ccc(F)cc2)c1-c1ccncc1 | 5000 nM | 
O=C(NCc1[nH]nc(-c2ccc(F)cc2)c1-c1ccncc1)c1ccc(C(F)(F)F)cc1 |  | 24%
N#Cc1ccc(S(=O)(=O)N2CCC(c3[nH]nc(-c4ccc(F)cc4)c3-c3ccncc3)CC2)cc1 |  | 24%
Cc1n[nH]c(-c2ccc(F)c(F)c2)c1-c1ccncc1 | 329 nM | 
Cc1ccc(S(=O)(=O)N2CCC(c3[nH]nc(-c4ccc(F)cc4)c3-c3ccncc3)CC2)cc1 |  | 14%
CC(C)OC(=O)NCc1[nH]nc(-c2ccc(F)cc2)c1-c1ccncc1 |  | 54%

The remaining lines, values ahead:

IC50 | inhibition | SMILES
 | 72% | C[C@H](NS(=O)(=O)c1ccc(S(=O)(=O)c2ccccc2)s1)c1[nH]nc(-c2ccc(F)cc2)c1-c1ccncc1
 | 46% | C[C@@H](NC(=O)C1CC1)c1[nH]nc(-c2ccc(F)cc2)c1-c1ccncc1
 | 75% | C[C@H](NS(=O)(=O)c1cccc2cnccc12)c1[nH]nc(-c2ccc(F)cc2)c1-c1ccncc1
 | 17% | CC(=O)OC(C)(C)C(=O)N[C@H](C)c1[nH]nc(-c2ccc(F)cc2)c1-c1ccncc1
 | 87% | COc1ccc(Cl)cc1S(=O)(=O)N[C@H](C)c1[nH]nc(-c2ccc(F)cc2)c1-c1ccncc1
 | 95% | C[C@H](NS(=O)(=O)c1ccc(Cl)s1)c1[nH]nc(-c2ccc(F)cc2)c1-c1ccncc1
 | 61% | C[C@@H](NS(=O)(=O)C[C@@]12CC[C@H](CC1=O)C2(C)C)c1[nH]nc(-c2ccc(F)cc2)c1-c1ccncc1
 | 50% | CNC(=O)N[C@H](C)c1[nH]nc(-c2ccc(F)cc2)c1-c1ccncc1
 | 92% | C[C@@H](NS(=O)(=O)c1ccc(Cl)cc1)c1[nH]nc(-c2ccc(F)cc2)c1-c1ccncc1
900 nM |  | C[C@@H](NS(=O)(=O)c1ccc(F)cc1)c1[nH]nc(-c2ccc(F)cc2)c1-c1ccncc1
 | 25% | Cc1cc(C)c(NC(=O)NCc2[nH]nc(-c3ccc(F)cc3)c2-c2ccncc2)c(C)c1
 | 83% | C[C@H](NS(=O)(=O)c1cccc(C(F)(F)F)c1)c1[nH]nc(-c2ccc(F)cc2)c1-c1ccncc1
 | 32% | C[C@H](NC(=O)c1ccc(Cl)cc1)c1[nH]nc(-c2ccc(F)cc2)c1-c1ccncc1
 | 48% | CCS(=O)(=O)N[C@H](C)c1[nH]nc(-c2ccc(F)cc2)c1-c1ccncc1
 | 28% | CC(C)=CC(=O)N[C@H](C)c1[nH]nc(-c2ccc(F)cc2)c1-c1ccncc1
 | 94% | Cc1ccccc1S(=O)(=O)N[C@@H](C)c1[nH]nc(-c2ccc(F)cc2)c1-c1ccncc1
1290 nM |  | Cc1ccc(S(=O)(=O)NCc2[nH]nc(-c3ccc(F)cc3)c2-c2ccncc2)cc1
 | 14% | COc1cccc(CC(=O)N[C@@H](C)c2[nH]nc(-c3ccc(F)cc3)c2-c2ccncc2)c1
 | 60% | C[C@H](NS(=O)(=O)C[C@]12CC[C@@H](CC1=O)C2(C)C)c1[nH]nc(-c2ccc(F)cc2)c1-c1ccncc1
 | 87% | C[C@@H](NC(=O)c1c(Cl)cccc1Cl)c1[nH]nc(-c2ccc(F)cc2)c1-c1ccncc1
 | 52% | CC(C)S(=O)(=O)N[C@H](C)c1[nH]nc(-c2ccc(F)cc2)c1-c1ccncc1
 | 50% | Cc1cccc(C)c1NC(=O)N[C@H](C)c1[nH]nc(-c2ccc(F)cc2)c1-c1ccncc1
 | 68% | C[C@H](NS(=O)(=O)c1cccc2c(N(C)C)cccc12)c1[nH]nc(-c2ccc(F)cc2)c1-c1ccncc1
 | 65% | Cc1cc(C)c(S(=O)(=O)N[C@H](C)c2[nH]nc(-c3ccc(F)cc3)c2-c2ccncc2)c(C)c1
 | 39% | C[C@H](NC(=O)c1cccc(Cl)c1)c1[nH]nc(-c2ccc(F)cc2)c1-c1ccncc1
 | 27% | CC(=O)O[C@@H](C)C(=O)N[C@H](C)c1[nH]nc(-c2ccc(F)cc2)c1-c1ccncc1
 | 27% | C[C@@H](NC(=O)Nc1cccc(F)c1)c1[nH]nc(-c2ccc(F)cc2)c1-c1ccncc1
